In US20100004159A1, “SUBSTITUTED IMIDAZOLONE DERIVATIVES, PREPARATIONS AND USES” (GENFIT, priority 2006, published 2010):

Assays:
[1] = biological target: T1, hPPARα (Homo sapiens, UniProt Q07869); experiment: Gal4-hPPARα transactivation in COS-7 cells (luciferase); assay type: cell-based; settings: for EC50: Gal4-hPPARα chimera, COS-7 cells, 24 hours
T1 construct: DNA fragments amplified by PCR and corresponding to the DEF domains of human PPARα, PPARγ, and PPARδ nuclear receptors; expressed in transfected cells; host or cells: COS-7
T1 sequence (Q07869 239-466 limits assumed): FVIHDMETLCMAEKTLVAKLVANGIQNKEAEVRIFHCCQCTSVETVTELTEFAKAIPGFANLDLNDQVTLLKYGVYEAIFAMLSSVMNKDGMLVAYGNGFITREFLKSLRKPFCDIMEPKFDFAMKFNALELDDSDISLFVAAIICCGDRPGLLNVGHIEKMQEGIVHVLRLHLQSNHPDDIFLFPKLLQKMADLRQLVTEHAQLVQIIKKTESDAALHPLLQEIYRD
Experimental: The activation of PPARs was evaluated in vitro using a monkey kidney fibroblast line (COS-7) by measuring the transcriptional activity of chimeras made up of the DNA binding domain of the Gal4 transcription factor of yeast and of the binding domain to the ligand of the different PPARs. The compounds were tested at doses of between 0.01 and 100 μM on Gal4-PPARα, γ, and δ chimeras.
COS-7 cells came from ATCC (American type culture collection) and were cultivated in a DMEM medium supplemented with 10% (vol/vol) of fetal calf serum, 100 U/ml of penicillin (Gibco, Paisley, UK) and 2 mM of L-Glutamine (Gibco, Paisley, UK). The cells were incubated at 37° C. under humid atmosphere containing 5% CO2.
The plasmids Gal4(RE)_TkpGL3, pGal4-hPPARα, pGal4-hPPARγ, pGal4-hPPARδ and pGal4-φ have been described in the literature (Raspe E et al., 1999). The constructions pGal4-hPPARα, pGal4-hPPARγ, and pGal4-hPPARδ were obtained by cloning, in the pGal4-φ vector, DNA fragments amplified by PCR and corresponding to the DEF domains of human PPARα, PPARγ, and PPARδ nuclear receptors.
The COS-7 cells in suspension were transfected with 150 ng of DNA per well, with a pGal4-PPAR/Gal4(RE)_TkpGL3 ratio of 1/10, in presence of 10% fetal calf serum. The cells were then plated in 96-well plates (4×10^4 cells/well), then incubated for 24 hours at 37° C. Activation with the test compounds was performed for 24 hours at 37° C. in a medium without serum. At the end of the experiment, the cells were lysed and the luciferase activity was determined using the Steady-Lite™ HTS (Perkin Elmert) or the Steady Glow Luciferase kit (Promega), in accordance with the provider's recommendations.
The compounds according to the invention were tested at doses between 0,01 and 100 μM on the 3 PPAR isoforms. The results obtained are presented in detail under FIG. 1a.

[2] = system: db/db mouse; experiment: Plasma lipids, glycemia and insulinemia in db/db mouse; assay type: in vivo; settings: 28-day treatment per os
Experimental: The insulin-resistance and hypolipemic properties of the compounds according to the invention were evaluated in vivo by assaying the plasma lipid, by measuring the plasma glucose and insulin levels, and by an analysis of the gene expression of PPAR target genes, after a per os treatment with the compounds according to the invention. These tests were performed in the db/db mouse
Female db/db mice were kept on a 12 hour/12 hour light/dark cycle at a constant temperature of 20±3° C. After a one week acclimatization period, the mice were weighed and divided into groups of 8 animals selected so as to render uniform the distribution of their body weights and their plasma lipid rates, determined before the experiment. The tested compounds were suspended in carboxymethylcellulose (Sigma C4888) and administered by intra-gastric tube feeding once a day for 28 days at the chosen dose. The animals had free access to food and water (standard diet). Taking of food and weight gain are recorded throughout the experiment. At the end of the experiment, the animals were anesthetized after a 4 hour fast, a blood sample was taken using (EDTA) anticoagulant, then the mice were weighed and euthanized. The plasma was separated by centrifugation at 3000 rotations/minute for 20 minutes. The samples were kept at +4° C.
Plasma lipid concentrations (total cholesterol and triglycerides) were measured by enzymatic assays (bioMerieux-Lyon-France) according to the provider's recommendations.
Murine plasma glucose was measured according to an enzyme-colorimetric method using a Glucose RTU kit (Biomerieux). Glucose is transformed into gluconic acid under the action of glucose oxidase; the reaction releases hydrogen peroxide. Hydrogen peroxide was measured according to the Trinder reaction which, under the action of a peroxidase and in the presence of phenol and amino-4-antipyrine, produces water and a colored product, quinoneimine. The color intensity, due to the quinoneimine, is proportional to the amount of glucose present in the sample.
Murine insulin is measured using ELISA method (using the INSKR020 kit from provider Crystal chem.). A microplate is coated with a mouse anti-insulin antibody. Then, the serum to be assayed for insulin is placed onto the plate. A guinea pig anti-insulin antibody is used to recognize the complex formed by the mouse insulin and the anti-insulin monoclonal antibody. Finally an anti-guinea pig antibody labeled with peroxidase is added and bind to the guinea pig anti-insulin antibody. The colorimetric reaction is performed by adding an OPD (Ortho Phenyl Diamine) enzyme substrate. The intensity of the color is proportional to the amount of insulin present in the sample.

[3] = system: SHR rats (spontaneous hypertensive rats); experiment: SHR rats treated 14 days: plasma triglycerides, arterial pressure, response to angiotensin II; assay type: in vivo, rat
Experimental: SHR rats (spontaneous hypertensive rats) (male sex—300-320 g—16-weeks old—Charles River France) were kept on a light/dark cycle of 12/12 hours at a constant temperature of 20±3° C. The compounds according to the invention being tested were suspended in carboxymethylcellulose (Sigma c4888) and administered to the animals by intra-gastric gavage, once a day for 14 days at the chosen doses. The animals had free access to food and water.
At the end of the experiment, after a 5-hour fast, the animals were anesthetized for surgery with pentobarbital (50 mg/kg). A catheter treated with heparin was placed in the carotid artery to measure arterial pressure. A second catheter was placed in the jugular vein to administer angiotensin II. Arterial pressure was measured and recorded at basal tone for 15 minutes. At this stage, the average arterial pressure of the control animals is compared to that of the animals having received the compounds according to the invention. After 15 minutes, three successive intravenous administrations of angiotensin II (50 ng/kg) were performed to evaluate the response to angiotensin II of animals treated with the compounds according to the invention.
At the end of the arterial pressure measurements, a blood sample was taken using anticoagulant (EDTA), then the animals were euthanized. The plasma was separated by centrifugation at 3000 rotations/minute for 20 minutes. The samples were kept at +4° C.
Plasma total concentrations of cholesterol, triglycerides, free fatty acids, and glucose were measured by enzymatic assays (bioMerieux-Lyon-France and Wako-Japan) according to the provider's recommendations.

SMILES	activation of hPPARα (luciferase activity) ([1]; COS-7 cells transfected pGal4-hPPAR, 0.01 to 100 μM)	EC50 [1] [nM]	glycemia ([2]; 10, 30 or 100 mpk)	insulinemia ([2]; 10, 30 or 100 mpk)	plasma free lipids level ([2]; 10, 30 or 100 mpk)	plasma triglycerides level ([2]; 10, 30 or 100 mpk)	arterial pressure before administrations of angiotensin II ([3]; 14 days of treatment, 150 mpk)	plasma triglyceride rate ([3]; 14 days of treatment, 150 mpk, intra-gastric)	hypertension induced by angiotensin II (difference of arterial pressure) ([3]; 14 days of treatment, 150 mpk, three intravenous administrations of angiotensin II 50 ng/kg)	glycemia ([2]; 100 mpk)	insulinemia ([2]; 100 mpk)	plasma free lipids level ([2]; 100 mpk)	plasma triglycerides level ([2]; 100 mpk)	hypertension induced by angiotensin II (difference of arterial pressure) ([3]; chronic treatment, 100 mpk, repeated administrations of angiotensin II)
CCCCC1=NC2(CCCC2)C(=O)N1Cc1ccc(-c2cccc(OC(C)(C)C(=O)O)c2)cc1 [Compound 1, 2-butyl-1-[(3′-((1-carboxy-1,1-dimethylmethyl)oxy)biphenyl-4-yl)methyl]-4-spirocyclopentyl-1H-imidazol-5(4H)-one]	activate the two PPAR isoforms	3000	decreased significantly (and dose-dependently)	decreased significantly (and dose-dependently)	decreased significantly (and dose-dependently)	decreased significantly (and dose-dependently)	antihypertensive effect	unexpectedly decreased	significant antagonist effect on angiotensin II	–	–	–	–	–
CCCCC1=NC2(CCCCC2)C(=O)N1Cc1ccc(-c2cccc(OC(C)(C)C(=O)O)c2)cc1 [Compound 21, 2-butyl-1-[(3′-((1-carboxy-1,1-dimethylmethyl)oxy)biphenyl-4-yl)methyl]-4-spirocyclohexyl-1H-imidazol-5(4H)-one]	–	600	–	–	–	–	–	–	–	decreased significantly	decreased significantly	decreased significantly	decreased significantly	significant antagonist effect on angiotensin II
